Assay results taken from ChEMBL document CHEMBL3797190, “Development of 3,5-Dinitrobenzylsulfanyl-1,3,4-oxadiazoles and Thiadiazoles as Selective Antitubercular Agents Active Against Replicating and Nonreplicating Mycobacterium tuberculosis” (J Med Chem, 2016).
The source made the active and inactive calls. The rule behind the calls is not given here.

Tests used:
[1] = test system: Mycobacterium tuberculosis; assay: Inhibition of proteosynthesis in Mycobacterium tuberculosis H37Ra assessed as reduction of [14C]-methionine incorporation at 0.05 ug/ml preincubated for 1 hr followed by radiolabeling with [14C]-methionine for 24 hrs by scintillation spectrometry; type: functional
[2] = Cytotoxicity against human HuH7 cells assessed as cell viability after 24 hrs by MTS assay; type: cell-based; conditions: Huh-7, 24 h
[3] = Cytotoxicity against human HuH7 cells assessed as cell viability after 48 hrs by MTS assay; type: cell-based; conditions: Huh-7, 48 h
HeLa [4] = assay: Cytotoxicity against human HeLa cells assessed as cell viability after 24 hrs by MTS assay; type: cell-based
HeLa [5] = assay: Cytotoxicity against human HeLa cells assessed as cell viability after 48 hrs by MTS assay; type: cell-based
[6] = Cytotoxicity against MDCK2-MDR1 cells assessed as cell viability after 24 hrs by MTS assay; type: ADME, cell-based; conditions: Canis lupus familiaris, MDCK-II
[7] = Cytotoxicity against MDCK2-MDR1 cells assessed as cell viability after 48 hrs by MTS assay; type: ADME, cell-based; conditions: Canis lupus familiaris, MDCK-II
[8] = Cytotoxicity against human HuH7 cells assessed as cell viability at 20 uM after 24 hrs by MTS assay; type: cell-based, Huh-7; conditions: read-out: Activity
[9] = Cytotoxicity against human HuH7 cells assessed as cell viability at 20 uM after 48 hrs by MTS assay; type: cell-based, Huh-7; conditions: read-out: Activity
[10] = Cytotoxicity against human HeLa cells assessed as cell viability at 20 uM after 24 hrs by MTS assay; type: cell-based; conditions: read-out: Activity
[11] = Cytotoxicity against human HeLa cells assessed as cell viability at 20 uM after 48 hrs by MTS assay; type: cell-based; conditions: read-out: Activity
[12] = Cytotoxicity against MDCK2-MDR1 cells assessed as cell viability at 20 uM after 24 hrs by MTS assay; type: ADME, cell-based, Canis lupus familiaris, MDCK-II; conditions: dog, read-out: Activity
[13] = Cytotoxicity against MDCK2-MDR1 cells assessed as cell viability at 20 uM after 48 hrs by MTS assay; type: ADME, cell-based, Canis lupus familiaris, MDCK-II; conditions: dog, read-out: Activity
Hepatocyte = assay: Cytotoxicity against primary human hepatocytes assessed as cell viability after 48 hrs by MTS assay; type: cell-based
[14] = Cytotoxicity against primary human hepatocytes assessed as cell viability at 20 uM after 48 hrs by MTS assay; type: cell-based, Hepatocyte; conditions: read-out: Activity
[15] = test system: Mycobacterium tuberculosis; assay: Antimycobacterial activity against Mycobacterium tuberculosis H37Ra assessed as growth inhibition at 0.05 ug/ml preincubated for 1 hr followed by radiolabeling with [14C]-uracil, [14C]-methionine for 24 hrs; type: functional, organism-based
[16] = test system: Mycobacterium tuberculosis; assay: Inhibition of RNA biosynthesis in Mycobacterium tuberculosis H37Ra assessed as reduction of [14C]-uracil incorporation at 0.05 ug/ml preincubated for 1 hr followed by radiolabeling with [14C]-uracil for 24 hrs by scintillation spectrometry; type: functional
[17] = test system: Mycobacterium tuberculosis; assay: Antimycobacterial activity against Mycobacterium tuberculosis H37Ra assessed as growth inhibition at 0.2 ug/ml preincubated for 24 hrs followed by radiolabeling with [14C]-acetate for 24 hrs; type: functional; conditions: read-out: GI
[18] = test system: Mycobacterium tuberculosis H37Ra; assay: Inhibition of DprE1 in Mycobacterium tuberculosis H37Ra assessed as accumulation of trehalose dimycolate at 0.2 ug/ml preincubated for 24 hrs followed by radiolabeling with [14C]-acetate for 24 hrs by TLC/autoradiographic method

SMILES | inhibition at 0.05 µg/mL [1] [%] | IC50 [2] [µM] | IC50 [3] [µM] | IC50 (HeLa [4]) [µM] | IC50 (HeLa [5]) [µM] | IC50 [6] [µM] | IC50 [7] [µM] | viability at 24 h, 20 µM [8] [%] | viability at 48 h, 20 µM [9] [%] | viability at 24 h, 20 µM [10] [%] | viability at 48 h, 20 µM [11] [%] | viability at 24 h, 20 µM [12] [%] | viability at 48 h, 20 µM [13] [%] | IC50 (Hepatocyte) [µM] | viability at 48 h, 20 µM [14] [%] | growth inhibition (GI) [15] | inhibition at 0.05 µg/mL [16] [%] | inhibition of growth at 0.2 µg/mL [17] [%] | inhibition [18]
CO[C@H]1/C=C/O[C@@]2(C)Oc3c(C)c(O)c4c(O)c(c(/C=N/N5CCN(C)CC5)c(O)c4c3C2=O)NC(=O)/C(C)=C\C=C\[C@H](C)[C@H](O)[C@@H](C)[C@@H](O)[C@@H](C)[C@H](OC(C)=O)[C@@H]1C [RIFAMPIN] | 61 | > 20 | > 20 | > 20 | > 20 | > 20 | > 20 | 98.3 | 52.7 | 102 | 100 | 103 | 106 | > 20 | 123 | Active | 68 |  | 
C[C@H]1COC2(CCN(c3nc(=O)c4cc(C(F)(F)F)cc([N+](=O)[O-])c4s3)CC2)O1 [BTZ-043] |  |  |  |  |  |  |  |  |  |  |  |  |  |  |  |  |  | 38 | Active
